Reference: patent publication EP0039646A1, “1,4-Benzodioxines, processes for their preparation and their use in therapy” (RIOM LABORATOIRES- C.E.R.M. (Société Anonyme), priority 1980, dated 1981)

Columns and labels:
récepteurs β2 = molecular target: T1, récepteurs β2 (Cavia porcellus, UniProt Q8K4Z4); assay: Antagonism of the bronchodilator effects of isoprenaline on guinea pig tracheal muscle; parameters: species or system cobaye
T1 construct: sur les récepteurs β2 du muscle trachéal de cobaye; from tissue; host or cells: guinea pig tracheal muscle
Excerpt: (§1) L'activité pharmacologique des composés de l'invention a été révélée par recherche d'une interférence avec les récepteurs adrénergiques β1, β2 et α in vitro, et confirmée in vivo par les effets antihypertenseurs observés après administration desdits composés chez le rat spontanément hypertendu anesthésié.
(§2) Les essais effectués in vitro correspondent aux protocoles résumés ci-après : • - Récepteurs adrénergiques β1 : on recherche l'antagonisme de l'effet inotrope positif de l'isopré- naline sur les récepteurs β1 de l'oreillette gauche de cobaye stimulée électriquement. • - Récepteurs adrénergiques 6 2 : on recherche l'antagonisme des effets bronchodilatateurs de l'iso- prénaline sur les récepteurs β2 du muscle trachéal de cobaye. • - Récepteurs adrénergiques α : on étudie l'interférence des composés de l'invention sur la contraction du vas déferens isolé du rat, provoquée par des doses cumulatives de noradrénaline.
(§3) Les résultats exprimés par les paramètres usuels de pharmacologie moléculaire, selon les critères utilisés par Van Rossum [Arch. Int.

[1] = test system: rat spontanément hypertendu anesthésié; assay: Antihypertensive effect in anaesthetised spontaneously hypertensive rats, carotid arterial pressure after i.v. injection; type: in vivo
Experimental: Les essais in vivo ont été effectués chez des rats mâles (S.H.R. - I.F.F.A.) conformément au protocole résumé ci-après :
Après anesthésie au pentobarbital, on a disposé un cathéter au niveau de l'artère carotide pour enregistrer la pression artérielle, et un cathéter au niveau d'une veine jugulaire pour permettre les injections des composés de l'invention mis en solution dans 0,5 ml de PEG 200 (polyéthylène glycol). La durée de l'injection était de 1 minute.

[2] = Acute oral toxicity in mice; settings: mouse, in vivo, voie orale, souris, read-out: toxicité aiguë
Experimental: Ces résultats montrent en particulier le grand intérêt du composé n° 2 qui présente un antagonisme très sélectif du type dualiste vis-à-vis des récepteurs β adrénergiques et fait preuve d'une remarquable activité in vivo chez le rat spontanément hypertendu anesthésié. Il a d'autre part été possible d'évaluer à 120 mg.kg-^1 la toxicité aiguë du composé n° 2 par voie orale chez la souris.

[3] = test system: Récepteurs adrénergiques α; assay: Interference with the contraction of isolated rat vas deferens caused by cumulative doses of noradrenaline
Excerpt: as §1, §2, §3

récepteurs β1 = molecular target: T2, récepteurs β1 (Cavia porcellus, UniProt H0W3H1); assay: Antagonism of the positive inotropic effect of isoprenaline on electrically stimulated guinea pig left atrium; parameters: species or system cobaye
T2 construct: sur les récepteurs β1 de l'oreillette gauche de cobaye stimulée électriquement; from tissue; host or cells: isolated guinea pig left atrium, electrically stimulated
Excerpt: as §1, §2, §3

T2 sequence (H0W3H1 1-470): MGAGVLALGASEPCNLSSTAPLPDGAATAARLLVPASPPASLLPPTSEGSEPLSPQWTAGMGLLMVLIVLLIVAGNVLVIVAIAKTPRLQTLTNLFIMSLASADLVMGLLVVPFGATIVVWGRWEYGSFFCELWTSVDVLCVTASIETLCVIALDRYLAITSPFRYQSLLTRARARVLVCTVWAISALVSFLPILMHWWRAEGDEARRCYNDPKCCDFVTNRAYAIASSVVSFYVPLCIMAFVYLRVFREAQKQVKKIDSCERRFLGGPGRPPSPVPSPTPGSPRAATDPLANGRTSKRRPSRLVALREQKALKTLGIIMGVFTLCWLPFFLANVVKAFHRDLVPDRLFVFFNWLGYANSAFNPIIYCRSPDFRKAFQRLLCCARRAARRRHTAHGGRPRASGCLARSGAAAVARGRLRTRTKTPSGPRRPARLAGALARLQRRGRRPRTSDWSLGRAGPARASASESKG
T1 sequence (Q8K4Z4 whole entry): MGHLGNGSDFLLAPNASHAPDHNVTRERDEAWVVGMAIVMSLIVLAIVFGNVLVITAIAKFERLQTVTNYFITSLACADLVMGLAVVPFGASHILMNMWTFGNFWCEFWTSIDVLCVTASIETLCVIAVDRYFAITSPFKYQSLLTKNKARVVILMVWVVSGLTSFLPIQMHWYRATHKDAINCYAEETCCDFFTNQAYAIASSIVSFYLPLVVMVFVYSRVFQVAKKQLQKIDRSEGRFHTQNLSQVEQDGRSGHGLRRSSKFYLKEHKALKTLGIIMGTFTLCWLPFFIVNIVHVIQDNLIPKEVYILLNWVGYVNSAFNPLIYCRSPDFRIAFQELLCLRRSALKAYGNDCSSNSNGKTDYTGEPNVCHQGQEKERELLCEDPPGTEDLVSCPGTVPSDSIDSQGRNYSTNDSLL

| action sur les récepteurs β1 (récepteurs β1; 10^-4 M/1) | SMILES | Récepteurs β2 (récepteurs β2) | durée de l'effet antihypertenseur ([1]; dose 2,5 mg.kg^-1, jugular vein injection in PEG 200, male SHR rats under pentobarbital) | LD50 [2] | potentialisation des effets de la noradrénaline ([3]; dose 10^-4 M/1) | pD'2 (récepteurs β1; Récepteurs β1, guinea pig left atrium, isoprenaline, Van Rossum criteria) | Kb (récepteurs β1; Récepteurs β1, guinea pig left atrium, isoprenaline, Van Rossum criteria, read-out: pA2 (converted)) | durée de l'effet antihypertenseur ([1]; dose 20 mg.kg^-1, jugular vein injection in PEG 200, male SHR rats under pentobarbital) | Récepteurs α ([3]; noradrenaline) |
| --- | --- | --- | --- | --- | --- | --- | --- | --- | --- |
|  | COc1ccccc1N1CCN(CC(O)C2=COc3ccccc3O2)CC1 (stereo not shown) [exemple 2, 2-méthanolα-[4-(2-methoxyphenyl)piperazinyl-1] methyl benzo (1,4) dioxine] | inactif | > 45 min | 120 mg/kg | 180% | 4,84 | 912 nM |  |  |
| très faiblement compétitive | OC(CN1CCN(c2cccc(C(F)(F)F)c2)CC1)C1=COc2ccccc2O1 (stereo not shown) [exemple 1, 2-méthanoloα-[4-(3-trifluoromethylphenyl)piperazinyl-1] methyl benzo (1,4) dioxine] | inactif |  |  |  |  |  | 20 min | inactif |
